Measurements published in ChEMBL document CHEMBL1201862, “PubChem BioAssay data set” (2004).
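A five-concentration, 48-hour dose response in 96-well plates underlies each endpoint, interpolated linearly between surrounding concentrations. Here, GI50 denotes the concentration required for 50% inhibition of growth.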 Calls of active or inactive are those of the source. No stated cut-off is given here; in the data, active = GI50 up to about 1.1 µM and inactive = higher.

How the values were obtained:
Test in all cases: growth of human tumour cells (NCI), 48 h
LOX IMVI = test system: LOX IMVI
NCI/ADR-RES = test system: NCI/ADR-RES
PC-3 = test system: PC-3
SK-MEL-28 = test system: SK-MEL-28
SF-539 = test system: SF-539
MDA-MB-435 = test system: MDA-MB-435
HCC 2998 = test system: HCC 2998
A498 = test system: A498
HCT-15 = test system: HCT-15
SK-OV-3 = test system: SK-OV-3
MOLT-4 = test system: MOLT-4
HOP-92 = test system: HOP-92
HCT-116 = test system: HCT-116
SR = test system: SR
CCRF-CEM = test system: CCRF-CEM
OVCAR-8 = test system: OVCAR-8
DU-145 = test system: DU-145
MCF7 = test system: MCF7
OVCAR-5 = test system: OVCAR-5
A549 = test system: A549

| SMILES | GI50 (LOX IMVI) | GI50 (NCI/ADR-RES) | GI50 (PC-3) | GI50 (SK-MEL-28) | GI50 (SF-539) | GI50 (MDA-MB-435) | GI50 (HCC 2998) | GI50 (A498) | GI50 (HCT-15) [µM] | GI50 (SK-OV-3) | GI50 (MOLT-4) | GI50 (HOP-92) | GI50 (HCT-116) | GI50 (SR) | GI50 (CCRF-CEM) | GI50 (OVCAR-8) | GI50 (DU-145) | GI50 (MCF7) | GI50 (OVCAR-5) | GI50 (A549) |
| --- | --- | --- | --- | --- | --- | --- | --- | --- | --- | --- | --- | --- | --- | --- | --- | --- | --- | --- | --- | --- |
| CCCCC/C(C=O)=C\c1ccccc1 | > 100 µM (inactive) | > 100 µM (inactive) | > 100 µM (inactive) | > 100 µM (inactive) | > 100 µM (inactive) | > 100 µM (inactive) | > 100 µM (inactive) | > 100 µM (inactive) | > 100 | > 100 µM (inactive) | 65.8 µM (inactive) | > 100 µM (inactive) | > 100 µM (inactive) | > 100 µM (inactive) | 80.4 µM (inactive) | > 100 µM (inactive) | > 100 µM (inactive) | > 100 µM (inactive) |  |  |
| CS/C(=N\S(=O)(=O)c1ccc(Cl)cc1)NCCCCN/C(=N/S(=O)(=O)c1ccc(Cl)cc1)SC | > 100 µM (inactive) | > 100 µM (inactive) | > 100 µM (inactive) | 95.3 µM (inactive) | > 100 µM (inactive) | > 100 µM (inactive) | > 100 µM (inactive) | 32.6 µM (inactive) | > 100 |  | > 10 µM (inactive) | 60.1 µM (inactive) | > 100 µM (inactive) | > 100 µM (inactive) | > 100 µM (inactive) | 75.3 µM (inactive) | > 100 µM (inactive) | > 100 µM (inactive) | > 100 µM (inactive) |  |
| O=c1[nH]c2cc(C(F)(F)F)ccc2nc1Cc1ccccc1 | > 100 µM (inactive) | 67 µM (inactive) | > 100 µM (inactive) | > 100 µM (inactive) | 63.2 µM (inactive) | > 100 µM (inactive) | > 100 µM (inactive) | 85.9 µM (inactive) | > 100 | 33 µM (inactive) | > 100 µM (inactive) | 18.5 µM (inactive) | 71.6 µM (inactive) | 36.6 µM (inactive) | > 100 µM (inactive) | 80.2 µM (inactive) | > 100 µM (inactive) | > 100 µM (inactive) |  |  |
| COc1ccc2c3c1O[C@H]1C(=O)C=CC4(n5[nH]c(=O)n(-c6ccccc6)c5=O)C(C2)N(C)CCC314 (stereo not given in full) | > 100 µM (inactive) | > 100 µM (inactive) | > 100 µM (inactive) | > 100 µM (inactive) | > 100 µM (inactive) | > 100 µM (inactive) |  | > 100 µM (inactive) | > 100 | > 100 µM (inactive) | > 100 µM (inactive) | > 100 µM (inactive) | > 100 µM (inactive) | > 100 µM (inactive) | > 100 µM (inactive) | > 100 µM (inactive) | > 100 µM (inactive) | > 100 µM (inactive) | > 100 µM (inactive) | > 100 µM (inactive) |
| CN1C(=O)c2ccc3ccccc3c2C1=O |  | > 100 µM (inactive) | > 100 µM (inactive) | > 100 µM (inactive) | > 100 µM (inactive) | > 100 µM (inactive) | > 100 µM (inactive) | 47.3 µM (inactive) | > 100 | > 100 µM (inactive) | > 100 µM (inactive) | 98.6 µM (inactive) | 77.4 µM (inactive) | > 100 µM (inactive) | > 100 µM (inactive) | > 100 µM (inactive) | > 100 µM (inactive) | > 100 µM (inactive) | > 100 µM (inactive) | > 100 µM (inactive) |
| C[N+]1(C)C(c2ccccc2)C(=O)O[B@-]1(F)c1ccccc1 (stereo not given in full) | > 100 µM (inactive) | > 100 µM (inactive) | > 100 µM (inactive) | > 100 µM (inactive) |  | > 100 µM (inactive) | > 100 µM (inactive) | 25.7 µM (inactive) | > 100 | > 100 µM (inactive) | > 100 µM (inactive) | 88.1 µM (inactive) | > 100 µM (inactive) | > 100 µM (inactive) | > 100 µM (inactive) | > 100 µM (inactive) | > 100 µM (inactive) | > 100 µM (inactive) | > 100 µM (inactive) | > 100 µM (inactive) |
| CCOC(=O)Cn1c(C(F)(F)F)nc2nc(Cl)c(Cl)nc21 | 38.1 µM (inactive) | 50.2 µM (inactive) | 32.2 µM (inactive) | 48.9 µM (inactive) | > 55.7 µM (inactive) | 32.5 µM (inactive) |  | 25.5 µM (inactive) | 37.2 | 49.1 µM (inactive) | 26.6 µM (inactive) | 24.7 µM (inactive) | 38.9 µM (inactive) | 24.2 µM (inactive) | 20 µM (inactive) | 38.5 µM (inactive) | 3.8 µM (inactive) | 23.3 µM (inactive) | > 100 µM (inactive) | 47.8 µM (inactive) |
